Test results as given in ChEMBL document CHEMBL1201862, “PubChem BioAssay data set” (2004).
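Tested at 5 concentrations; 48 h exposure; 96-well plates; endpoints linearly interpolated, else capped at highest concentration. At the GI50, growth is halved.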 Activity calls are given as the source filed them. Cut-off read from the data, not from the text of the source: active = GI50 up to about 1.1 µM and inactive = higher.

What was measured:
Assay in all cases: growth of human tumour cells (NCI), 48 h
ACHN = test system: ACHN
CAKI-1 = test system: CAKI-1
COLO 205 = test system: COLO 205
HL-60 = test system: HL-60
Hs-578T = test system: Hs-578T
LOX IMVI = test system: LOX IMVI
M14 = test system: M14
MCF7 = test system: MCF7
MDA-MB-231 = test system: MDA-MB-231
MDA-N = test system: MDA-N
NCI-H522 = test system: NCI-H522
NCI/ADR-RES = test system: NCI/ADR-RES
OVCAR-8 = test system: OVCAR-8
RXF 393 = test system: RXF 393
SF-268 = test system: SF-268
SK-OV-3 = test system: SK-OV-3
SNB-75 = test system: SNB-75
UACC-62 = test system: UACC-62
NCI-H226 = test system: NCI-H226
U-251 = test system: U-251

Measured: GI50

CC[C@@]1(C[C@H]2C[C@@]3(C(=O)OC)c4[nH]c5ccccc5c4CCN3C2=O)COC2(CCCCC2)O1
inactive: ACHN 30.9 µM | CAKI-1 36.2 µM | COLO 205 34.4 µM | HL-60 18.9 µM | Hs-578T 18.9 µM | LOX IMVI 32.8 µM | M14 37.8 µM | MCF7 25.5 µM | MDA-MB-231 > 100 µM | MDA-N 43.2 µM | NCI-H522 37.1 µM | NCI/ADR-RES 31.8 µM | OVCAR-8 43.3 µM | RXF 393 19.5 µM | SF-268 30.3 µM | SK-OV-3 69.5 µM | SNB-75 46.8 µM | UACC-62 23.5 µM

O=[N+]([O-])/C(C(Cl)=C(Cl)Cl)=C(\Nc1cccc2ccccc12)n1nnc2ccccc21
inactive: ACHN > 100 µM | CAKI-1 > 100 µM | COLO 205 21.5 µM | Hs-578T 9.31 µM | LOX IMVI 35.4 µM | M14 > 100 µM | MCF7 41.5 µM | MDA-MB-231 47.1 µM | MDA-N > 100 µM | NCI-H226 71.3 µM | NCI/ADR-RES 78.3 µM | OVCAR-8 73.6 µM | RXF 393 19.1 µM | SF-268 48 µM | SK-OV-3 68.7 µM | SNB-75 86.5 µM | U-251 33 µM | UACC-62 40.9 µM

O=C(NC1CCN(Cc2ccccc2)CC1)c1ccc(I)cc1
inactive: ACHN 96.2 µM | CAKI-1 70.1 µM | COLO 205 21.8 µM | HL-60 > 100 µM | Hs-578T 33.2 µM | LOX IMVI > 100 µM | M14 39 µM | MDA-MB-231 19.4 µM | MDA-N 54.6 µM | NCI-H226 33.4 µM | NCI-H522 63.5 µM | NCI/ADR-RES > 100 µM | OVCAR-8 > 100 µM | RXF 393 25.2 µM | SF-268 63.8 µM | SK-OV-3 44.1 µM | U-251 81.1 µM | UACC-62 59.4 µM

COC(=O)C12CCC(C(=O)OC)(Cc3c(c4ccccc4n3S(=O)(=O)c3ccccc3)C1)C2=O (stereo not given)
inactive: ACHN > 64.1 µM | CAKI-1 > 62.4 µM | COLO 205 > 100 µM | Hs-578T > 46.6 µM | LOX IMVI > 59.3 µM | M14 > 63.8 µM | MCF7 63.8 µM | MDA-MB-231 > 100 µM | MDA-N > 100 µM | NCI-H522 20 µM | NCI/ADR-RES 16.7 µM | OVCAR-8 > 92.7 µM | RXF 393 1.61 µM | SF-268 > 61 µM | SK-OV-3 > 70.8 µM | SNB-75 > 60.7 µM | U-251 > 100 µM | UACC-62 > 40.5 µM

O=C(/C=C/C=C/c1ccccc1)c1ccc2c(c1)CCCC2
inactive: ACHN 70.8 µM | CAKI-1 74.3 µM | COLO 205 40.4 µM | Hs-578T 4.84 µM | LOX IMVI 30.1 µM | M14 94.2 µM | MCF7 32 µM | MDA-MB-231 96.6 µM | MDA-N 19.6 µM | NCI-H226 41.1 µM | NCI-H522 13.4 µM | NCI/ADR-RES 25.8 µM | OVCAR-8 33.1 µM | SF-268 16.2 µM | SK-OV-3 72.9 µM | U-251 35 µM | UACC-62 > 100 µM

O=C(NCCCCCCCCNC(=O)Nc1cccc2ccccc12)Nc1cccc2ccccc12
inactive: ACHN 85.9 µM | CAKI-1 40.9 µM | COLO 205 35.6 µM | HL-60 33.4 µM | Hs-578T 14.2 µM | LOX IMVI 8.34 µM | M14 > 100 µM | MCF7 13.8 µM | MDA-MB-231 7.69 µM | MDA-N 20.3 µM | NCI-H522 16.1 µM | NCI/ADR-RES 46.7 µM | OVCAR-8 18.5 µM | RXF 393 22.6 µM | SF-268 14.1 µM | SNB-75 35.5 µM | U-251 2.76 µM | UACC-62 32.9 µM

O=c1c2cc(S(=O)(=O)Nc3c(Cl)cccc3Cl)ccc2ncn1NS(=O)(=O)c1ccc2ccccc2c1
inactive: ACHN > 62.5 µM | CAKI-1 25.9 µM | COLO 205 46.6 µM | HL-60 20.2 µM | Hs-578T 15.8 µM | LOX IMVI 25.4 µM | M14 > 62.5 µM | MCF7 > 62.5 µM | MDA-MB-231 42.4 µM | MDA-N 41 µM | NCI-H226 8.87 µM | NCI-H522 45.4 µM | NCI/ADR-RES > 62.5 µM | OVCAR-8 > 62.5 µM | SF-268 > 62.5 µM | SK-OV-3 > 62.5 µM | SNB-75 50.1 µM | U-251 > 62.5 µM | UACC-62 33.2 µM

CN(C)c1ccc(/C=C2\N=C(c3ccccc3)N(/N=C3\C(=O)Nc4ccccc43)C2=O)cc1
inactive: ACHN 65.9 µM | CAKI-1 35.9 µM | COLO 205 30.2 µM | HL-60 35.2 µM | Hs-578T 38.8 µM | LOX IMVI 28.8 µM | M14 91.4 µM | MCF7 35.8 µM | MDA-MB-231 92.5 µM | MDA-N 32.7 µM | NCI-H522 23.4 µM | NCI/ADR-RES 83.8 µM | OVCAR-8 55 µM | RXF 393 45.1 µM | SF-268 39.6 µM | SK-OV-3 > 100 µM | SNB-75 57.9 µM | U-251 76.6 µM | UACC-62 > 100 µM

COc1ccccc1/C=N/Nc1nnc2c3ccccc3c3ncccc3c2n1
inactive: ACHN 57 µM | CAKI-1 > 100 µM | COLO 205 > 100 µM | HL-60 > 100 µM | Hs-578T 21 µM | LOX IMVI 64.1 µM | M14 50.5 µM | MCF7 > 100 µM | MDA-MB-231 26.2 µM | MDA-N > 100 µM | NCI-H522 70.6 µM | NCI/ADR-RES 38.1 µM | OVCAR-8 30 µM | RXF 393 18.1 µM | SF-268 29.9 µM | SK-OV-3 32.8 µM | SNB-75 19.3 µM | U-251 37.3 µM | UACC-62 48.8 µM

Oc1ccc2ccccc2c1CN(Cc1c(O)ccc2ccccc12)C1CCCCC1
inactive: ACHN 18.3 µM | CAKI-1 16.6 µM | COLO 205 16.1 µM | Hs-578T 26.4 µM | LOX IMVI 15 µM | M14 15.2 µM | MCF7 15.5 µM | MDA-MB-231 18.5 µM | MDA-N 15.4 µM | NCI-H522 13.4 µM | NCI/ADR-RES 23.5 µM | OVCAR-8 21.3 µM | RXF 393 18.2 µM | SF-268 14.1 µM | SK-OV-3 42 µM | SNB-75 21.8 µM | U-251 20.2 µM | UACC-62 16.8 µM

NCC(=O)NC1(c2cc3ccccc3s2)CCCCC1
inactive: ACHN 23.3 µM | CAKI-1 > 100 µM | COLO 205 17.9 µM | HL-60 18.5 µM | Hs-578T 27.7 µM | LOX IMVI 51.1 µM | M14 17.6 µM | MCF7 27.2 µM | MDA-N 38.8 µM | NCI-H226 18.7 µM | NCI-H522 41.4 µM | NCI/ADR-RES 48.5 µM | OVCAR-8 > 100 µM | RXF 393 42.3 µM | SF-268 28.4 µM | SK-OV-3 67.6 µM | SNB-75 28.3 µM | UACC-62 19.7 µM
